Reference: ChEMBL document CHEMBL1131558, “Synthesis of Dolastatin 15 mimetic peptoids” (1998)
Values after ≈ are worked out from the molar mass of the structure shown. Active and inactive are the calls of the source. No cut-off for these calls is given here. Square brackets hold non-standard residues; d marks the D form. Peptide text beside a SMILES is read from it. * marks the point of attachment. X1 = COC1=CC(=O)N(C(=O)[C@@H](O*)C(C)C)[C@H]1Cc1ccccc1; NMe2Val = CC(C)[C@@H](C(=O)*)N(C)C; NMeV = CN[C@H](C(=O)O)C(C)C

Assays:
SK-OV-3 = assay: Anticancer activity was determined by the inhibition of colony formation in liquid culture of SK-OV-3 ovarian cancer cells up to the concentration 31.6 ug/mL; NI means No inhibition; format: functional, cell-based; details: Homo sapiens
Homo sapiens = species: Homo sapiens; assay: Anticancer activity was determined by the inhibition of colony formation in liquid culture of KB human epidermoid carcinoma cells up to the concentration 31.6 ug/mL; NI means No inhibition; format: functional
LNCaP = assay: Anticancer activity was determined by the inhibition of colony formation in liquid culture of up to the concentration 31.6 ug/mL; NI means No inhibition; format: functional, cell-based; details: Homo sapiens
L1210 = assay: Anticancer activity was determined by the inhibition of colony formation in liquid culture of L-1210 leukemia cells up to the concentration 31.6 ug/mL; NI means No inhibition; format: functional, cell-based; details: Mus musculus
P388 = assay: Anticancer activity against lymphocytic leukemia P388 cells was determined; format: functional; details: Mus musculus, read-out: ED50 (the source's name)

| SMILES | Activity (SK-OV-3) | Activity (Homo sapiens) | Activity (LNCaP) | Activity (L1210) | EC50 (P388) [ng/mL] |
| --- | --- | --- | --- | --- | --- |
| CC(=O)N(CC(=O)N(CC(=O)N1CCC[C@H]1C(=O)N1CCCC1C(=O)N(CC(=O)N(CC(=O)N(C(C)C)C(C)C)C(C)C)C(C)C)C(C)C)Cc1ccccc1 (single isomer, unassigned) | inactive | inactive | inactive | inactive |  |
| CC(=O)N(CC(=O)N(CC(=O)N1CCC[C@H]1C(=O)N1CCC[C@H]1C(=O)N(CC(=O)N(CC(=O)N(C(C)C)C(C)C)C(C)C)C(C)C)C(C)C)Cc1ccccc1 | inactive | inactive | inactive | inactive |  |
| CC(=O)N(CC(=O)N(CC(=O)N1CCCC1C(=O)N1CCC[C@H]1C(=O)N(CC(=O)N(CC(=O)N(C(C)C)C(C)C)C(C)C)C(C)C)C(C)C)Cc1ccccc1 (single isomer, unassigned) | inactive | inactive | inactive | inactive |  |
| COC1=CC(=O)N(C(=O)[C@@H](OC(=O)[C@@H]2CCCN2C(=O)[C@@H]2CCCN2C(=O)[C@H](C(C)C)N(C)C(=O)[C@@H](NC(=O)[C@H](C(C)C)N(C)C)C(C)C)C(C)C)[C@H]1Cc1ccccc1 [DOLASTATIN 15] (NMe2Val-V[NMeV]PP-X1) |  |  |  |  | 2.4 (≈ 2.87 nM) |
| CC(=O)N(CC(=O)N(CC(=O)N1CCC[C@@H]1C(=O)N1CCC[C@@H]1C(=O)N(CC(=O)N(CC(=O)N(C(C)C)C(C)C)C(C)C)C(C)C)C(C)C)Cc1ccccc1 (single isomer, unassigned) | inactive | inactive | inactive | inactive |  |
| CC(=O)N(CC(=O)N(CC(=O)N1CCC[C@@H]1C(=O)N1CCC[C@@H]1C(=O)N(CC(=O)N(CC(=O)N(C(C)C)C(C)C)C(C)C)Cc1ccccc1)C(C)C)Cc1ccccc1 (single isomer, unassigned) | inactive | inactive | inactive | inactive |  |
| CC(C)N(CC(=O)O)C(=O)CN(C(=O)[C@H]1CCCN1C(=O)[C@H]1CCCN1C(=O)CN(C(=O)CNCc1ccccc1)C(C)C)C(C)C (single isomer, unassigned) | inactive | inactive | inactive | inactive |  |
| CC(=O)N(CC(=O)N(CC(=O)N1CCC[C@@H]1C(=O)N1CCC[C@@H]1C(=O)N(CC(=O)N(CC(=O)O)C(C)C)C(C)C)C(C)C)Cc1ccccc1 (single isomer, unassigned) | inactive | inactive | inactive | inactive |  |
| CC[C@H](C)[C@@H]([C@@H](CC(=O)N1CCC[C@H]1[C@H](OC)[C@@H](C)C(=O)N[C@@H](Cc1ccccc1)c1nccs1)OC)N(C)C(=O)[C@@H](NC(=O)[C@H](C(C)C)N(C)C)C(C)C [DOLASTATIN-10] |  |  |  |  | 0.1 (≈ 0.127 nM) |
| CC(C)N(CC(=O)N(C(C)C)C(C)C)C(=O)CN(C(=O)[C@H]1CCCN1C(=O)[C@H]1CCCN1C(=O)OCc1ccccc1)C(C)C (single isomer, unassigned) | inactive | inactive | inactive | inactive |  |
